Measured values published in PubChem BioAssay AID200 (DTP/NCI, 2004).
Several values for one entry are separate records, joined by “and”; a condition that tells them apart may be missing. Equal values may be shown once. Toxic doses and inconclusive results are not listed.

Tested on: B6C3F1 mice, B16 melanoma ip, median survival T/C
Test: NCI In Vivo Anticancer Drug Screen. Data for tumor model B16 Melanoma (intraperitoneal) in B6C3F1 mice
Conditions: endpoint: median survival time, schedule: Q01DX009 (ip), higher = longer survival
Method: The antitumor activity of compounds was measured in mice bearing transplantable tumors. Survival or tumor size were measured and the results are expressed as the measurement made in the treated group (T) divided by the measurement made in the vehicle treated control group (C). The tumor model used in this assay is B16 Melanoma (intraperitoneal) in B6C3F1 mice

[1] = dose: 12.5 mg/kg/injection, vehicle: saline
[2] = dose: 25.0 mg/kg/injection, vehicle: saline
[3] = dose: 50.0 mg/kg/injection, vehicle: saline
[4] = dose: 100.0 mg/kg/injection, vehicle: saline
[5] = dose: 200.0 mg/kg/injection, vehicle: saline
[6] = dose: 400.0 mg/kg/injection, vehicle: saline
[7] = dose: 6.25 mg/kg/injection, vehicle: saline
[8] = dose: 3.0 mg/kg/injection, vehicle: Klucel (hydroxypropylcellulose) (HPC)
[9] = dose: 6.0 mg/kg/injection, vehicle: Klucel (hydroxypropylcellulose) (HPC)
[10] = dose: 6.25 mg/kg/injection, vehicle: Klucel (hydroxypropylcellulose) (HPC)
[11] = dose: 12.0 mg/kg/injection, vehicle: Klucel (hydroxypropylcellulose) (HPC)
[12] = dose: 12.5 mg/kg/injection, vehicle: Klucel (hydroxypropylcellulose) (HPC)
[13] = dose: 25.0 mg/kg/injection, vehicle: Klucel (hydroxypropylcellulose) (HPC)
[14] = dose: 50.0 mg/kg/injection, vehicle: Klucel (hydroxypropylcellulose) (HPC)
[15] = dose: 100.0 mg/kg/injection, vehicle: Klucel (hydroxypropylcellulose) (HPC)
[16] = dose: 200.0 mg/kg/injection, vehicle: Klucel (hydroxypropylcellulose) (HPC)
[17] = dose: 12.5 mg/kg/injection, vehicle: suspension in saline
[18] = dose: 25.0 mg/kg/injection, vehicle: suspension in saline

## CN(C)N=Nc1ccnc2ccc(I)cc12
dose: 3.13 mg/kg/injection, vehicle: other
  T/C: 111 % of control
dose: 6.25 mg/kg/injection, vehicle: other
  T/C: 115 % of control
dose: 12.5 mg/kg/injection, vehicle: other
  T/C: 109 % of control
dose: 25.0 mg/kg/injection, vehicle: other
  T/C: 110 % of control
dose: 50.0 mg/kg/injection, vehicle: other
  T/C: 114 % of control

## NCCc1cc(O)c(O)c(O)c1
[1]
  T/C: 106 % of control
[2]
  T/C: 105 % of control
[3]
  T/C: 101 % of control
[4]
  T/C: 98 % of control
[5]
  T/C: 106 % of control
[6]
  T/C: 96 % of control

## COc1cc(NCCCCCCCNC(C)C)c2nccc(C)c2c1
dose: 3.12 mg/kg/injection, vehicle: saline
  T/C: 103 % of control
[7]
  T/C: 96 % of control
[1]
  T/C: 103 % of control
[2]
  T/C: 103 % of control

## CCOC(=O)c1ccc(NC(=O)Nc2nc(C)cs2)cc1
dose: 12.5 mg/kg/injection, vehicle: distilled water + Tween-80
  T/C: 120 % of control
dose: 25.0 mg/kg/injection, vehicle: distilled water + Tween-80
  T/C: 120 % of control

## C1CCC(NC2CCCCC2)CC1
[2]
  T/C: 86 % of control
[3]
  T/C: 101 % of control
[4]
  T/C: 106 % of control
[5]
  T/C: 86 % of control
[6]
  T/C: 104 % of control

## CCOC(OCC)C(=O)OCC(=O)[C@]1(O)Cc2c(O)c3c(c(O)c2[C@@H](OC2CC(N)C(O)C(C)O2)C1)C(=O)c1c(OC)cccc1C3=O (stereo partly specified)
dose: 0.12 mg/kg/injection, vehicle: water
  T/C: 155 % of control
dose: 0.13 mg/kg/injection, vehicle: water
  T/C: 165 % of control
dose: 0.25 mg/kg/injection, vehicle: water
  T/C: 177 % of control and 182 % of control
dose: 0.5 mg/kg/injection, vehicle: water
  T/C: 208 % of control and 285 % of control
dose: 1.0 mg/kg/injection, vehicle: water
  T/C: 189 % of control and 285 % of control
dose: 2.0 mg/kg/injection, vehicle: water
  T/C: 212 % of control and 285 % of control
dose: 4.0 mg/kg/injection, vehicle: water
  T/C: 285 % of control

## CCCC[C@H]1C(=O)O[C@H](C)[C@H](NC(=O)c2cccc(NC=O)c2O)C(=O)O[C@@H](C)[C@@H]1OC(=O)CC(C)C
dose: 0.12 mg/kg/injection, vehicle: Klucel (hydroxypropylcellulose) (HPC)
  T/C: 96 % of control
dose: 0.25 mg/kg/injection, vehicle: Klucel (hydroxypropylcellulose) (HPC)
  T/C: 96 % of control
dose: 0.5 mg/kg/injection, vehicle: Klucel (hydroxypropylcellulose) (HPC)
  T/C: 91 % of control and 98 % of control

## OC1COC(c2ccccc2)OC1C1OC(c2ccccc2)OC2COC(c3ccccc3)OC21 (stereo unspecified)
dose: 3.12 mg/kg/injection, vehicle: saline with Tween-80
  T/C: 93 % of control
dose: 6.25 mg/kg/injection, vehicle: saline with Tween-80
  T/C: 93 % of control
dose: 12.5 mg/kg/injection, vehicle: saline with Tween-80
  T/C: 91 % of control

## CSCCC(NC(=O)CNC(=O)OCc1ccccc1)C(=O)O (stereo unspecified)
[8]
  T/C: 101 % of control and 103 % of control
[9]
  T/C: 95 % of control
[10]
  T/C: 93 % of control
[11]
  T/C: 101 % of control and 103 % of control
[12]
  T/C: 97 % of control
[13]
  T/C: 93 % of control and 94 % of control
[14]
  T/C: 95 % of control and 99 % of control and 102 % of control
[15]
  T/C: 95 % of control
[16]
  T/C: 101 % of control
dose: 400.0 mg/kg/injection, vehicle: Klucel (hydroxypropylcellulose) (HPC)
  T/C: 95 % of control

## NCCCNCCCCNC(=O)C(O)NC(=O)CC(O)CCCCN=C(N)N (stereo unspecified)
[7]
  T/C: 101 % of control
[1]
  T/C: 99 % of control
[2]
  T/C: 98 % of control and 101 % of control
[3]
  T/C: 99 % of control and 101 % of control
[4]
  T/C: 111 % of control and 107 % of control

## Nc1c(/C=C/c2cc3cc(C4=NCCN4)ccc3o2)[nH]c2cc(C3=NCCN3)ccc12
dose: 1.5 mg/kg/injection, vehicle: Klucel (hydroxypropylcellulose) (HPC)
  T/C: 108 % of control
[8]
  T/C: 98 % of control
[9]
  T/C: 95 % of control
[11]
  T/C: 98 % of control
[12]
  T/C: 90 % of control
dose: 24.0 mg/kg/injection, vehicle: Klucel (hydroxypropylcellulose) (HPC)
  T/C: 90 % of control
[13]
  T/C: 89 % of control

## CCN(C)N=Nc1ccc(C(N)=O)cc1
[10]
  T/C: 117 % of control and 95 % of control
[12]
  T/C: 104 % of control and 106 % of control
[13]
  T/C: 95 % of control and 101 % of control
[14]
  T/C: 110 % of control and 102 % of control

## CC1(C)CC(=O)C(CSC(=O)c2ccccc2)C(=O)C1
dose: 1.56 mg/kg/injection, vehicle: Klucel (hydroxypropylcellulose) (HPC)
  T/C: 94 % of control
dose: 3.12 mg/kg/injection, vehicle: Klucel (hydroxypropylcellulose) (HPC)
  T/C: 97 % of control and 99 % of control
[10]
  T/C: 98 % of control
[12]
  T/C: 93 % of control

## NC(=O)c1ncn2c(=O)n(CCCl)nnc12
dose: 3.13 mg/kg/injection, vehicle: suspension in saline
  T/C: 123 % of control
[17]
  T/C: 225 % of control
[18]
  T/C: 209 % of control

## O=C(Oc1cc(Cl)ccc1Cl)c1ccccc1
dose: 50.0 mg/kg/injection, vehicle: saline with Tween-80
  T/C: 96 % of control
dose: 100.0 mg/kg/injection, vehicle: saline with Tween-80
  T/C: 97 % of control
dose: 200.0 mg/kg/injection, vehicle: saline with Tween-80
  T/C: 91 % of control
dose: 400.0 mg/kg/injection, vehicle: saline with Tween-80
  T/C: 87 % of control

## O=S(=O)(O)c1cc(N=C=S)ccc1/C=C/c1ccc(N=C=S)cc1S(=O)(=O)O
[1]
  T/C: 96 % of control
[2]
  T/C: 95 % of control
[3]
  T/C: 91 % of control
[4]
  T/C: 86 % of control

## O=c1c(O)c(-c2ccc(O)c(O)c2)oc2cc(O)cc(O)c12
[17]
  T/C: 103 % of control
[18]
  T/C: 107 % of control
dose: 50.0 mg/kg/injection, vehicle: suspension in saline
  T/C: 102 % of control
dose: 100.0 mg/kg/injection, vehicle: suspension in saline
  T/C: 109 % of control

## Nc1ncnc2c1ncn2C1C=C(CO)C(O)C1O (stereo unspecified)
dose: 0.5 mg/kg/injection, vehicle: saline
  T/C: 97 % of control and 106 % of control
dose: 1.0 mg/kg/injection, vehicle: saline
  T/C: 99 % of control and 103 % of control
dose: 2.0 mg/kg/injection, vehicle: saline
  T/C: 102 % of control and 103 % of control
dose: 4.0 mg/kg/injection, vehicle: saline
  T/C: 110 % of control and 105 % of control

## NC(N)=N/N=C/c1ccc(Cl)cc1Cl
[2]
  T/C: 100 % of control
[3]
  T/C: 89 % of control
[4]
  T/C: 95 % of control

## COc1ccc(CC(N)c2ccccc2)cc1 (stereo unspecified)
[3]
  T/C: 99 % of control
[4]
  T/C: 96 % of control

## O=C(Cl)c1ccccc1S(=O)(=O)N(CCOc1ccccc1)c1ccccc1
[14]
  T/C: 90 % of control
[15]
  T/C: 94 % of control
[16]
  T/C: 90 % of control

## CN(C)CCNc1ccc(NCCN(C)C)c2c1C(=O)c1ccccc1C2=O
dose: 20.0 mg/kg/injection, vehicle: distilled water + Tween-80
  T/C: 117 % of control

## O=C1c2ccccc2C(=O)N1CC#CCN1C(=O)c2ccccc2C1=O
dose: 75.0 mg/kg/injection, vehicle: saline with Tween-80
  T/C: 108 % of control
dose: 150.0 mg/kg/injection, vehicle: saline with Tween-80
  T/C: 93 % of control
dose: 300.0 mg/kg/injection, vehicle: saline with Tween-80
  T/C: 90 % of control

## C=CCOCC1CO1 (stereo unspecified)
[1]
  T/C: 98 % of control and 99 % of control
[2]
  T/C: 111 % of control and 101 % of control
[3]
  T/C: 92 % of control and 103 % of control
[4]
  T/C: 111 % of control and 104 % of control
[5]
  T/C: 111 % of control and 99 % of control
